# Like-named read-outs stand apart in the source and are kept apart here.
# How the values were obtained:
# SNB75 cells = assay: Cytotoxicity CellTiter-Glo; type: cell-based, human
# U87MG cells = assay: Cytotoxicity CellTiter-Glo; type: cell-based, human
# U251 cells = assay: Cytotoxicity CellTiter-Glo; type: cell-based, human
# T98G cells = assay: Cytotoxicity CellTiter-Glo; type: cell-based, human
# SAOS-2 cells = assay: Cytotoxicity CellTiter-Glo; type: cell-based, human; settings: SAOS-2, Osteosarcoma
# U-2 OS cells = assay: Cytotoxicity CellTiter-Glo; type: cell-based, human
# A204 cells = assay: Cytotoxicity CellTiter-Glo; type: cell-based, human; settings: A204, Rhabdomyosarcoma
# SHEP cells = assay: Cytotoxicity CellTiter-Glo; type: cell-based, human
# A549 cells = assay: Cytotoxicity CellTiter-Glo; type: cell-based, human; settings: read-out: IC50 (50% growth inhibition); A549, Non-small cell lung; 72 hours
# Procedure: (§1) Human cancer cell lines were purchased from UCSF Cell Culture Facility (CCF) or obtained through Material Transfer.
# (§2) The range of platinum concentrations used in the studies are 5 μM-100 μM. After 72 hours of treatment, the medium were removed and replaced with 50 μL of the media plus 50 μL of the CellTiterGlo reagent. The number of viable cells in culture will be determined based on quantitation of the ATP present, which is an indicator of the number of active cells. Concentration response graphs were generated for each compound using GraphPad Prism software. The graphs were analyzed using a curve fit for sigmoid dose-response, and IC50 values were derived. The results were expressed as mean IC50 values with the standard error of the mean.
# AsPC1 cells = assay: Cytotoxicity CellTiter-Glo; type: cell-based, human; settings: read-out: IC50 (50% growth inhibition); AsPC1, Pancreas; 72 hours
# Procedure: as §1, §2
# DU145 cells = assay: Cytotoxicity CellTiter-Glo; type: cell-based, human; settings: read-out: IC50 (50% growth inhibition); DU145, Prostate; 72 hours
# Procedure: as §1, §2
# H226 cells = assay: Cytotoxicity CellTiter-Glo; type: cell-based, human; settings: read-out: IC50 (50% growth inhibition); H226, Non-small cell squamous; 72 hours
# Procedure: as §1, §2
# HCT116 cells = assay: Cytotoxicity CellTiter-Glo; type: cell-based, human; settings: read-out: IC50 (50% growth inhibition); HCT116, Colon; 72 hours
# Procedure: as §1, §2
# HT29 cells = assay: Cytotoxicity CellTiter-Glo; type: cell-based, human; settings: read-out: IC50 (50% growth inhibition); HT29, Colon; 72 hours
# Procedure: as §1, §2
# PC3 cells = assay: Cytotoxicity CellTiter-Glo; type: cell-based, human; settings: read-out: IC50 (50% growth inhibition); PC3, Prostate; 72 hours
# Procedure: as §1, §2
# A2780-CP cells = assay: Cytotoxicity CellTiter-Glo; type: cell-based, human; settings: read-out: IC50 (50% growth inhibition), Ovary, 72 hours
# PE04 cells = assay: Cytotoxicity CellTiter-Glo; type: cell-based, human; settings: read-out: IC50 (50% growth inhibition); PE04, Ovary; 72 hours
# OVCAR2 cells = assay: Cytotoxicity CellTiter-Glo; type: cell-based, human; settings: read-out: IC50 (50% growth inhibition); OVCAR2, Ovary; 72 hours
# SLC19A1 = biological target: T1, SLC19A1 (Homo sapiens, UniProt P41440); assay: IC50 with and without folic acid, transporter SLC19A1 (Table 8); type: cell-based
# T1 sequence (P41440 1-591): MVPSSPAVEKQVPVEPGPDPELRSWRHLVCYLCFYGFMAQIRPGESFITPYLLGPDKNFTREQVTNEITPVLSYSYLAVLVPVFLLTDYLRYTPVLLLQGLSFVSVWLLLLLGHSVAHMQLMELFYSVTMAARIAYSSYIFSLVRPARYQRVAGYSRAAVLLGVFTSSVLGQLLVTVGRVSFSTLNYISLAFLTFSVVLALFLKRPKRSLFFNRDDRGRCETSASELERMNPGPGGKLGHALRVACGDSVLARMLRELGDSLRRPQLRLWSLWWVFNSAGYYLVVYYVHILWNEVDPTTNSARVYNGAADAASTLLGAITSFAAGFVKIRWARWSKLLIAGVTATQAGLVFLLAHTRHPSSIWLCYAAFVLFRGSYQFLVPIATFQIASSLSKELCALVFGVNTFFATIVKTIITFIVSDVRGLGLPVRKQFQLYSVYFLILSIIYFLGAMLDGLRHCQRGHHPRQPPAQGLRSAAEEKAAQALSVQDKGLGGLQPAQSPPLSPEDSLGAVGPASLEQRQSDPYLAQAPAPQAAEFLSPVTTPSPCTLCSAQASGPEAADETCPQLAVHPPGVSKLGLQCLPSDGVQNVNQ
# [1] = Lethality in C57BL/6 mice, i.v. once a week
# Source text: The concentration versus time course of total platinum followed a two-compartment model in the mice. […] In the maximum tolerated dose studies, we observed body weight reduction in all mice due to the low folate diet (FIG. 6).
# HL-60(TB) cells = settings: Leukemia
# [2] = read-out: IC50 (50% growth inhibition), Brain, 72 hours
# [3] = read-out: IC50 (50% growth inhibition), 72 hours
substance,measurement,setting,value
[Pt(DMSO)methotrexate(Cl)] [SM-69],IC50,"SNB75 cells; read-out: IC50 (50% growth inhibition), SNB75, Brain, 72 hours",6.1 ± 4.6 µM
same,IC50,"SNB75 cells; read-out: IC50 ± S.D. (50% growth inhibition), SNB75, Brain - High grade, + 1 mM Folic Acid",46.3 ± 20.2 µM
same,IC50,"SNB75 cells; read-out: IC50 ± S.D. (50% growth inhibition), SNB75, Brain - High grade, two independent experiments",8.7 ± 6.4 µM
same,IC50,U87MG cells; [2],2.2 ± 2 µM
same,IC50,"U87MG cells; read-out: IC50 ± S.D. (50% growth inhibition), Brain - Low grade, + 1 mM Folic Acid",26.2 ± 21.5 µM
same,IC50,"U87MG cells; read-out: IC50 ± S.D. (50% growth inhibition), Brain - Low grade, two independent experiments",3.7 ± 4.5 µM
same,IC50,"U251 cells; read-out: IC50 (50% growth inhibition), U251, Brain, 72 hours",4 ± 4.5 µM
same,IC50,"U251 cells; read-out: IC50 ± S.D. (50% growth inhibition), U251, Brain - High grade, + 1 mM Folic Acid",6.1 ± 0.29 µM
same,IC50,"U251 cells; read-out: IC50 ± S.D. (50% growth inhibition), U251, Brain - High grade, two independent experiments",0.25 ± 0.02 µM
same,IC50,T98G cells; [2],40.8 ± 42.6 µM
same,IC50,"T98G cells; read-out: IC50 ± S.D. (50% growth inhibition), Brain - High grade, + 1 mM Folic Acid",1.9 ± 0.03 µM
same,IC50,"T98G cells; read-out: IC50 ± S.D. (50% growth inhibition), Brain - High grade, two independent experiments",0.09 ± 0.007 µM
same,GI50,SAOS-2 cells,10.4 ± 9.4 µM
same,IC50,SAOS-2 cells; [3],10.4 ± 9.4 µM
same,GI50,U-2 OS cells; Osteosarcoma,18 ± 15 µM
same,IC50,"U-2 OS cells; read-out: IC50 (50% growth inhibition), Osteosarcoma, 72 hours",18 ± 15 µM
same,GI50,A204 cells,3.9 ± 3 µM
same,IC50,A204 cells; [3],3.9 ± 3 µM
same,GI50,SHEP cells; Neuroblastoma,2.7 ± 2.3 µM
same,IC50,"SHEP cells; read-out: IC50 (50% growth inhibition), Neuroblastoma, 72 hours",2.7 ± 2.3 µM
same,IC50,A549 cells,1.2 ± 0.7 µM
same,IC50,AsPC1 cells,7 ± 0.4 µM
same,IC50,DU145 cells,1.5 ± 0.2 µM
same,IC50,H226 cells,16.4 ± 13.1 µM
same,IC50,HCT116 cells,4.8 ± 0.6 µM
same,IC50,HT29 cells,5.9 ± 1.6 µM
same,IC50,PC3 cells,6.3 ± 1.5 µM
same,IC50,A2780-CP cells,8.6 ± 2.1 µM
same,IC50,PE04 cells,4.9 ± 2 µM
same,IC50,OVCAR2 cells,3.3 ± 1.6 µM
same,IC50,"SLC19A1; Folic acid (1 mM), read-out: IC50 with substrate or inhibitor",42.7 ± 4.11 µM
same,IC50,"SLC19A1; without substrate or inhibitor, read-out: IC50",13.5 ± 1.62 µM
same,lethality,[1]; 5 mg/kg i.v. once a week,not
same,lethality,[1]; 10 mg/kg i.v. once a week,lethal
same,Log10GI50,HL-60(TB) cells,−5.46 M

# — US10392412B2, “Platinum anticancer agents” (THE REGENTS OF THE UNIVERSITY OF CALIFORNIA, priority 2015, dated 2019)
